According to patent publication US20140287036A1, “SOFT-GELATIN CAPSULE FORMULATION” (SUCAMPO AG, priority 2006, published 2014):

Assays:
Format in all cases: physicochemical
[1] = Stability of compound 1/MCT solution (60 μg/g) kept with gelatin piece at 40° C. for 21 days; conditions: MCT solution, percentage of theoretical amount (60 μg/g)
Description: One hundred (100) parts by weight of gelatin (type A, high bloom, SKW Biosystems #195F) and 35 parts by weight of a plasticizer shown in Table 2 were mixed in water and dried to give gelatin piece. Compound 1 was dissolved in medium chain fatty acid triglyceride (USP/NF grade) to give a liquid mixture comprising 60 μg/g of the compound. 0.5 g of the liquid mixture and 0.5 g of each gelatin piece were put together in a sealed container and kept at 40° C. for 21 days. Then, the concentration of compound 1 contained in the liquid mixture was determined in the same manner as Reference Example 1.

[2] = Stability of soft gelatin capsule of compound 1 at 40° C.; conditions: MCT fill 240 μg/g; for conc. (% of Initial) 40° C. 2 mo: 2 months; for conc. (% of Initial) 40° C. 3 mo: 3 months
Description: Sugar alcohol solution derived from corn starch in an amount shown in Table 3 was added in an appropriate amount of water, stirred and heated. Then, gelatin 100 parts by weight was added thereto to give gelatin solution. Compound 1 was dissolved in medium chain fatty acid triglyceride (USP/NF grade) to give a fill solution containing 240 μg/g of compound 1. The gelatin solution and the liquid mixture were loaded on capsule forming and filling machine to give capsule containing the fill solution therein, and the capsule was dried to give soft gelatin capsule.
The capsule was put in a sealed container and kept at 40° C. for 3 months. The concentration of compound 1 in the fill solution contained in the capsule was determined after 1, 2 and 3 months storage in the same manner as Reference Example 1.

[3] = Storage stability of compound 1 solution (240 μg/g) in a vehicle at 55° C., HPLC assay; conditions: percentage of theoretical amount (240 μg/g); for concentration of compound 1, day 10: 55° C., 10 days
Description: Compound 1 was dissolved in a vehicle shown in table 1 below to give 240 μg/g solution (sample). The precise concentration of compound 1 in the sample was determined by means of HPLC (day 0). Then, the sample was put in a hard grass container and kept at 55° C. for 10 days, and then the precise concentration of the compound 1 in the sample was determined by means of HPLC (day 10).
The determination of the concentration of the compound in the sample was carried out as follows. About 0.2 g of the sample was mixed with exactly 2 ml of internal standard solution and then with a dissolving agent shown in Table 1 to give 5 mL of sample solution. About 12 mg of the reference standard compound 1 was weighted precisely and added with acetonitrile to give exactly 100 ml solution. Exactly 0.8 ml of the solution was obtained and added with exactly 4 ml of the internal standard solution, and then added with the dissolving agent to give 10 ml of standard solution.
The fluorescent labeling agent was added to the respective solution, stirred and stood at room temperature. Then, respective solution in an amount that theoretically gives 3.6 ng of compound 1 was loaded on the column and analyzed under the condition as follows:
Column: 5 mm×25 cm stainless steel column packed with octadecylsilane treated silica gel for HPLC (5 μm)
Mobile phase: mixture of acetonitrile HPLC grade: methanol HPLC grade: ammonium acetate (0.05 mol/L)
Detector: spectrophotofluorometer

[4] = capsule shell gelatin 100 / sugar alcohol solution 35 parts by weight
[5] = capsule shell gelatin 100 / sugar alcohol solution 45 parts by weight
[6] = capsule shell gelatin 100 / sugar alcohol solution 55 parts by weight
[7] = vehicle polyethylene glycol 400

CCCCC(F)(F)[C@@]1(O)CC[C@H]2[C@@H](CC(=O)[C@@H]2CCCCCCC(=O)O)O1 [compound 1, 7-[(2R,4aR,5R,7aR)-2-(1,1-difluoropentyl)-2-hydroxy-6-oxooctahydrocyclopenta[b]pyran-5-yl]heptanoic acid]
concentration of compound 1 after storage ([1]; gelatin piece with glycerin plasticizer (water content 23%)): 86.8% | concentration of compound 1 after storage ([1]; gelatin piece with sugar alcohol solution derived from corn starch as plasticizer (water content 25%)): 92.0% | conc. (% of Initial) 40° C. 1 mo ([2]; capsule shell gelatin 100 / sugar alcohol solution 35 parts by weight, 1 month): 99.9% | conc. (% of Initial) 40° C. 2 mo [2, 4]: 100.3% | conc. (% of Initial) 40° C. 3 mo [2, 4]: 99.2% | conc. (% of Initial) 40° C. 2 mo [2, 5]: 100.5% | conc. (% of Initial) 40° C. 3 mo [2, 5]: 100.0% | conc. (% of Initial) 40° C. 2 mo [2, 6]: 99.3% | conc. (% of Initial) 40° C. 3 mo [2, 6]: 100.0% | concentration of compound 1, day 10 ([3]; vehicle glycerin): 78.0% | concentration of compound 1, day 0 ([3]; vehicle glycerin): 92.0% | concentration of compound 1, day 10 ([3]; vehicle hydrogenated maltose starch syrup): 24.4% | concentration of compound 1, day 10 [3, 7]: 90.1% | concentration of compound 1, day 0 [3, 7]: 98.2% | concentration of compound 1, day 10 ([3]; vehicle propylene glycol): 88.6% | concentration of compound 1, day 0 ([3]; vehicle propylene glycol): 97.8% | concentration of compound 1, day 10 ([3]; vehicle sugar alcohol solution derived from corn starch (Polysorb 85/70/00)): 26.2%
